One series relates to γH2AX. Description: γH2AX staining (Table I). In kind it is cell-based.
The subject of another series is ATM/ATR. The experiment in a line: ATM/ATR activation (Table I). In kind it is cell-based.
Series [1] concerns Topo II. Description: Topo II inhibition in vitro (Table I). In kind it is biochemical.
The next series has as its system Chk1/2. The experiment in a line: Chk1/2 phosphorylation (Table I). The class given is cell-based.
The test system of series [2] is Topo II. The experiment in a line: Topo II inhibition in cells (Table I). The class given is cell-based.
Series [3] concerns thirteen cancer cell lines. Description: relative cell survival of cancer cell lines, methylene blue staining (FIG. 11). The following applies: 24 hours treatment, then compound-free medium. In kind it is cell-based. How it is done:
FIG. 11 contains plots of concentration of Compound 100 (μM) vs. relative cell survival for thirteen cancer cell lines showing that a present carbazole compound is an effective agent against numerous types of cancer;
Each of the cell lines presented in FIG. 11 was seeded into 96 well plates. The next day, cells were treated with a range of concentrations of Compound 100. Treatment occurred for 24 hours, at which time compound-filled medium was replaced with compound-free medium and cells were allowed to grow until the control wells, which were treated with only vehicle control (DMSO), reached a monolayer (typically within 48 hours). Cells then were fixed and stained with 0.5% methylene blue in 50% methanol. The dye was eluted with 1% SDS and the absorbance measured at 650 nm. Data is presented as the absorbance at 650 nm versus the concentration of Compound 100.

The test system of the next series is p53. Description: p53 activation assay, p53 responsive luciferase reporter cell line. In kind it is cell-based, human. The following applies: Homo sapiens, 16 h, HT1080-L or RCC45ConALuc reporter cells, 16 h; read-out: EC50 value (p53 activation). How it is done: The potency of a present carbazole compound is determined by measuring an ability of the compound to inhibit NF-κB activity or to activate p53. […] Theoretically, such assays of the dose-response effect of activator compounds can be described as a sigmoidal curve expressing a degree of activation as a function of concentration. The curve also theoretically passes through a point at which the concentration is sufficient to increase activity to a level that is 50% that of the difference between a baseline and the maximal activity in the assay. […] Determination of an EC50 value is made using conventional biochemical (acellular) assay techniques or cell-based assay techniques.
The potency of a carbazole compound is determined by measuring an ability of the compound to activate p53.
The p53 activation assay for determination of the EC50 value was performed as follows:
HT1080-L (human fibrosarcoma cells with ConALuc reporter)
RCC45ConALuc (human renal cell carcinoma cell line with ConALuc reporter)
1. Two types of standard cells were used, either HT1080-L or RCC45ConALuc cells. Both cell lines stably express a p53 responsive luciferase reporter construct.
2. HT1080-L cells were grown in DMEM medium containing 10% FBS. RCC45ConALuc cells were grown in RPMI medium containing 10% FBS (Pen/Strep can be added to a final concentration of 1%, if desired). Both cell lines were grown in a humidified incubator at 37° C. with 5% CO2. For normal culturing, both cell lines were split using 1× trypsin-EDTA at a ratio of 1:20 for HT1080-L and 1:5 for RCC45ConALuc cells every 3-4 days (when cells are 80-90% confluent).
3. A day before the experiment, the cells are trypsinized for about 5 minutes in 1× tripsin/EDTA solution in 37° C. incubator and plated in 96 well plates. HT1080-L cells were seeded at a density of 1×10^4/well in standard DMEM medium in a volume of 50 μl. RCC45ConALuc were seeded at a density of 2×10^4/well in the volume of 50 uL in standard RPMI medium.
4. The next day, various carbazole compounds were prepared by dilution of stock solutions in standard DMEM medium such that the cells were treated with the final chemical concentrations in Table 1 below. Stock solutions were made up in DMSO. Typically, chemicals were made up as 20 mM stock solutions.
5. Each tested compound used two rows of a 96-well plate, thus four compounds (e.g., W, X, Y, Z) were tested in one plate simultaneously. In addition to test compounds, each plate included positive and negative controls. As positive control, 9aa was used at a dose of 3 μM. As a negative control, DMSO was used in final concentration 0.1%.
1. Dilutions of chemicals added to the plate were made up as 2× concentrations in standard DMEM and added to corresponding well in a volume of 50 μl.
2. Chemicals were diluted in standard DMEM by two time serial dilutions starting from 40 μM (2× of highest concentration, e.g., 20 μM). For one cell line, the minimum volume was 125 μL of 2× working solution of chemical of each concentration in standard DMEM.
4. Sixteen hours following compound addition, all wells with the highest concentrations of compounds are checked microscopically for the presence of toxic effect, because death of cells caused by compounds may not allow detecting luciferase activity. If cytotoxocity is evident, other doses of the same compounds were checked for the presence of toxicity. The lowest dose causing toxic effect was recorded.
5. After microscopic examination, 15 μl of Bright Glo luciferase assay system were added to each well and after 5 min incubation at RT, the plates were read on a 96 well plate luminometer with a measurement time of 0.1 sec. A shaking step was included before measurement.
6. The folds of luciferase activation for each concentration of each chemical were calculated by dividing the detected luciferase activity at each chemical concentration by the average of the luciferase activity for the DMSO control on the same plate.
(Reporter assays use an easily measured gene product as a stand-in for the process of interest.)

Molecules are shown by their SMILES.

By EC50 is commonly meant the concentration giving half of the maximal effect.

Consider `COc1cccc2c1C(=O)c1c(O)c3c(c(O)c1C2=O)C[C@@](O)(C(=O)CO)C[C@@H]3O[C@H]1C[C@H](N)[C@H](O)[C@H](C)O1` [doxorubicin], for which the γH2AX staining entry with γH2AX was “yes”. Besides, the ATM/ATR activation entry with ATM/ATR was “yes”. The “Topo II inhibition in vitro” value in the series on Topo II [1] is given as “relegation”. Also, the Chk1/2 phospho entry with Chk1/2 was “yes”. Moreover, the Ames test entry in “Ames test” is on record as “negative”. Further, the “Topo II inhibition in cells” value with Topo II [2] is given as “yes”.

For `CCN(CC)CCn1c2ccc([N+](=O)[O-])cc2c2cc([N+](=O)[O-])ccc21` [Compound 100], the γH2AX staining result in the series on γH2AX is listed as “no”. Besides, the ATM/ATR activation entry in the series with ATM/ATR is on record as “no”. Further, the “Topo II inhibition in vitro” value in the series with Topo II [1] is “ligation”. For the same molecule, the Chk1/2 phospho entry in the series on Chk1/2 was “no”. The Ames test entry in the series “Ames test” was “negative”. Besides, in the series with Topo II [2], the “Topo II inhibition in cells” value is recorded as “no”. Besides, the “anti-cancer activity against tested cancer cells” value in series [3] was “significant anti-cancer activity”. Moreover, the EC50 in the series with p53 stood at 1300 nM.

These data come from US9566265B2, “Carbazole compounds and therapeutic uses of the compounds” (Incuron, LLC, priority 2008, dated 2017).
